Several values for one entry are separate records, joined by “and”; a condition that tells them apart may be missing. Equal entries are not always repeated. Inconclusive results and toxic doses are left out. How the source made its calls: active means survival T/C of 150% or more; inactive means T/C below 125% in these data.
Test system: B6C3F1 mice, intracerebral ependymoblastoma, median survival T/C
Experiment: NCI In Vivo Anticancer Drug Screen. Data for tumor model Ependymoblastoma (intracerebral) in B6C3F1 mice
Conditions: endpoint: median survival time, higher = longer survival
Experimental: The antitumor activity of compounds was measured in mice bearing transplantable tumors. Survival or tumor size were measured and the results are expressed as the measurement made in the treated group (T) divided by the measurement made in the vehicle treated control group (C). The tumor model used in this assay is Ependymoblastoma (intracerebral) in B6C3F1 mice

[1] = dose: 2.0 mg/kg/injection, schedule: Q01DX001 (oral), vehicle: saline
[2] = dose: 4.0 mg/kg/injection, schedule: Q01DX001 (oral), vehicle: saline
[3] = dose: 64.0 mg/kg/injection, schedule: Q01DX005 (ip), vehicle: saline with Tween-80
[4] = dose: 128.0 mg/kg/injection, schedule: Q01DX005 (ip), vehicle: saline with Tween-80
[5] = dose: 256.0 mg/kg/injection, schedule: Q01DX005 (ip), vehicle: saline with Tween-80
[6] = dose: 512.0 mg/kg/injection, schedule: Q01DX005 (ip), vehicle: saline with Tween-80

Measured: T/C

O=P(NC12CC3CC(CC(C3)C1)C2)(N1CC1)N1CC1
inactive: dose: 2.25 mg/kg/injection, schedule: Q01DX005 (ip), vehicle: Klucel (hydroxypropylcellulose) (HPC) 108 % of control and 113 % of control | dose: 4.5 mg/kg/injection, schedule: Q01DX005 (ip), vehicle: Klucel (hydroxypropylcellulose) (HPC) 111 % of control and 117 % of control | dose: 9.0 mg/kg/injection, schedule: Q01DX005 (ip), vehicle: Klucel (hydroxypropylcellulose) (HPC) 123 % of control | dose: 18.0 mg/kg/injection, schedule: Q01DX005 (ip), vehicle: Klucel (hydroxypropylcellulose) (HPC) 123 % of control

COC(=O)[C@@]12OC[C@]34[C@H]([C@@H](O)[C@@H]1O)[C@@]1(C)CC(=O)C(O)=C(C)[C@@H]1C[C@H]3OC(=O)[C@H](OC(=O)/C=C(\C)C(C)C)[C@@H]24
inactive: dose: 0.03 mg/kg/injection, schedule: Q01DX005 (ip), vehicle: saline + alcohol 100 % of control and 101 % of control | dose: 0.06 mg/kg/injection, schedule: Q01DX005 (ip), vehicle: saline + alcohol 92 % of control and 97 % of control | dose: 0.12 mg/kg/injection, schedule: Q01DX005 (ip), vehicle: saline + alcohol 98 % of control and 101 % of control | dose: 0.12 mg/kg/injection, schedule: Q01DX005 (oral), vehicle: saline 100 % of control | dose: 0.12 mg/kg/injection, schedule: Q12HX006 (ip), vehicle: saline 109 % of control | dose: 0.25 mg/kg/injection, schedule: Q01DX005 (ip), vehicle: saline + alcohol 95 % of control and 96 % of control | dose: 0.25 mg/kg/injection, schedule: Q12HX002 (ip), vehicle: saline 107 % of control | dose: 0.25 mg/kg/injection, schedule: Q12HX006 (ip), vehicle: saline 116 % of control | dose: 0.5 mg/kg/injection, schedule: Q01DX001 (ip), vehicle: saline 111 % of control and 115 % of control and 116 % of control | dose: 0.5 mg/kg/injection, schedule: Q01DX005 (ip), vehicle: saline + alcohol 92 % of control and 95 % of control | dose: 0.5 mg/kg/injection, schedule: Q01DX005 (oral), vehicle: saline 101 % of control | dose: 0.5 mg/kg/injection, schedule: Q12HX002 (ip), vehicle: saline 107 % of control | dose: 0.5 mg/kg/injection, schedule: Q12HX006 (ip), vehicle: saline 116 % of control | dose: 1.0 mg/kg/injection, schedule: Q01DX001 (ip), vehicle: saline 101 % of control and 110 % of control and 111 % of control | dose: 1.0 mg/kg/injection, schedule: Q01DX005 (ip), vehicle: saline + alcohol 95 % of control and 100 % of control | dose: 1.0 mg/kg/injection, schedule: Q01DX005 (oral), vehicle: saline 100 % of control | dose: 1.0 mg/kg/injection, schedule: Q12HX002 (ip), vehicle: saline 102 % of control | dose: 1.0 mg/kg/injection, schedule: Q12HX006 (ip), vehicle: saline 119 % of control | dose: 2.0 mg/kg/injection, schedule: Q01DX001 (ip), vehicle: saline 119 % of control and 123 % of control | [1] 101 % of control and 109 % of control and 115 % of control | dose: 2.0 mg/kg/injection, schedule: Q01DX005 (ip), vehicle: saline + alcohol 98 % of control | dose: 2.0 mg/kg/injection, schedule: Q01DX005 (oral), vehicle: saline 105 % of control | dose: 2.0 mg/kg/injection, schedule: Q12HX002 (ip), vehicle: saline 110 % of control | dose: 4.0 mg/kg/injection, schedule: Q01DX001 (ip), vehicle: saline 115 % of control | [2] 95 % of control and 101 % of control and 123 % of control | dose: 4.0 mg/kg/injection, schedule: Q12HX002 (ip), vehicle: saline 101 % of control | dose: 8.0 mg/kg/injection, schedule: Q01DX001 (oral), vehicle: saline 95 % of control and 96 % of control and 108 % of control | dose: 16.0 mg/kg/injection, schedule: Q01DX001 (oral), vehicle: saline 105 % of control

O=c1ccn(C2OC(CO)C(O)C2O)c(=O)[nH]1 (stereo not drawn)
inactive: [3] 113 % of control | dose: 64.0 mg/kg/injection, schedule: Q01DX005 (ip), vehicle: saline 109 % of control | [4] 90 % of control | dose: 128.0 mg/kg/injection, schedule: Q01DX005 (ip), vehicle: saline 94 % of control | [5] 109 % of control | dose: 256.0 mg/kg/injection, schedule: Q01DX005 (ip), vehicle: saline 100 % of control | [6] 99 % of control | dose: 512.0 mg/kg/injection, schedule: Q01DX005 (ip), vehicle: saline 94 % of control | dose: 1024.0 mg/kg/injection, schedule: Q01DX005 (ip), vehicle: saline with Tween-80 99 % of control | dose: 1024.0 mg/kg/injection, schedule: Q01DX005 (ip), vehicle: saline 96 % of control

CCC(=O)O[C@H]1CC[C@H]2[C@@H]3CC[C@H]4CC(=O)[C@H](C)C[C@]4(C)[C@H]3CC[C@]12C
inactive: dose: 8.0 mg/kg/injection, schedule: Q01DX005 (ip), vehicle: Klucel (hydroxypropylcellulose) (HPC) 95 % of control and 102 % of control | dose: 8.0 mg/kg/injection, schedule: Q01DX005 (ip), vehicle: saline with Tween-80 98 % of control and 108 % of control | dose: 16.0 mg/kg/injection, schedule: Q01DX005 (ip), vehicle: Klucel (hydroxypropylcellulose) (HPC) 90 % of control and 101 % of control | dose: 16.0 mg/kg/injection, schedule: Q01DX005 (ip), vehicle: saline with Tween-80 95 % of control and 96 % of control | dose: 32.0 mg/kg/injection, schedule: Q01DX005 (ip), vehicle: Klucel (hydroxypropylcellulose) (HPC) 97 % of control and 99 % of control | dose: 32.0 mg/kg/injection, schedule: Q01DX005 (ip), vehicle: saline with Tween-80 103 % of control and 107 % of control | dose: 64.0 mg/kg/injection, schedule: Q01DX005 (ip), vehicle: Klucel (hydroxypropylcellulose) (HPC) 95 % of control and 101 % of control | [3] 98 % of control and 111 % of control | dose: 128.0 mg/kg/injection, schedule: Q01DX005 (ip), vehicle: Klucel (hydroxypropylcellulose) (HPC) 98 % of control and 87 % of control | [4] 106 % of control and 108 % of control | dose: 256.0 mg/kg/injection, schedule: Q01DX005 (ip), vehicle: Klucel (hydroxypropylcellulose) (HPC) 93 % of control and 87 % of control | [5] 97 % of control and 113 % of control | dose: 512.0 mg/kg/injection, schedule: Q01DX005 (ip), vehicle: Klucel (hydroxypropylcellulose) (HPC) 87 % of control | [6] 97 % of control and 101 % of control

CN(C)CCCNc1c2ccccc2nc2cccc([N+](=O)[O-])c12
inactive: dose: 0.06 mg/kg/injection, schedule: Q01DX001 (oral), vehicle: saline 102 % of control | dose: 0.06 mg/kg/injection, schedule: Q01DX005 (ip), vehicle: saline 103 % of control and 105 % of control and 112 % of control | dose: 0.12 mg/kg/injection, schedule: Q01DX001 (oral), vehicle: saline 98 % of control | dose: 0.12 mg/kg/injection, schedule: Q01DX005 (ip), vehicle: saline 92 % of control | dose: 0.13 mg/kg/injection, schedule: Q01DX005 (ip), vehicle: saline 102 % of control | dose: 0.25 mg/kg/injection, schedule: Q01DX001 (oral), vehicle: saline 103 % of control | dose: 0.5 mg/kg/injection, schedule: Q01DX001 (oral), vehicle: saline 100 % of control | dose: 1.0 mg/kg/injection, schedule: Q01DX001 (oral), vehicle: saline 108 % of control | [1] 108 % of control | [2] 103 % of control | dose: 16.0 micrograms/kg/injection, schedule: Q01DX005 (ip), vehicle: saline 100 % of control and 110 % of control | dose: 32.0 micrograms/kg/injection, schedule: Q01DX005 (ip), vehicle: saline 100 % of control and 102 % of control | dose: 63.0 micrograms/kg/injection, schedule: Q01DX005 (ip), vehicle: saline 97 % of control and 104 % of control | dose: 125.0 micrograms/kg/injection, schedule: Q01DX005 (ip), vehicle: saline 100 % of control and 106 % of control

CN(C)c1nc(N(C)C)nc(N(C)C)n1
inactive: dose: 50.0 mg/kg/injection, schedule: Q01DX005 (ip), vehicle: saline 94 % of control | dose: 100.0 mg/kg/injection, schedule: Q01DX005 (ip), vehicle: saline with Tween-80 100 % of control | dose: 100.0 mg/kg/injection, schedule: Q01DX005 (ip), vehicle: saline 94 % of control | dose: 200.0 mg/kg/injection, schedule: Q01DX001 (ip), vehicle: saline with Tween-80 92 % of control | dose: 200.0 mg/kg/injection, schedule: Q01DX001 (ip), vehicle: saline 96 % of control and 99 % of control and 104 % of control | dose: 200.0 mg/kg/injection, schedule: Q01DX005 (ip), vehicle: saline with Tween-80 99 % of control | dose: 200.0 mg/kg/injection, schedule: Q01DX005 (ip), vehicle: saline 101 % of control | dose: 400.0 mg/kg/injection, schedule: Q01DX001 (ip), vehicle: saline with Tween-80 100 % of control | dose: 400.0 mg/kg/injection, schedule: Q01DX001 (ip), vehicle: saline 97 % of control and 107 % of control and 89 % of control | dose: 400.0 mg/kg/injection, schedule: Q01DX005 (ip), vehicle: saline with Tween-80 87 % of control | dose: 800.0 mg/kg/injection, schedule: Q01DX001 (ip), vehicle: saline with Tween-80 100 % of control | dose: 800.0 mg/kg/injection, schedule: Q01DX001 (ip), vehicle: saline 92 % of control (2×) and 96 % of control | dose: 1600.0 mg/kg/injection, schedule: Q01DX001 (ip), vehicle: saline 106 % of control

From PubChem BioAssay AID226 (DTP/NCI, 2004)
